From patent US7956069B2, “Compounds” (AstraZeneca AB, priority 2006, dated 2011)

What was measured:
[1] = target: T1, hM5 (human Muscarinic receptor subtype 5) (Homo sapiens, UniProt P08912); experiment: Human M5 calcium mobilization FLIPR assay; assay type: cell-based; conditions: CHO cells expressing hM5, Ca2+ release
T1 construct: expressed in transfected cells; host or cells: CHO cells (Chinese hamster ovary cells, ATCC)
T1 sequence (P08912 1-532): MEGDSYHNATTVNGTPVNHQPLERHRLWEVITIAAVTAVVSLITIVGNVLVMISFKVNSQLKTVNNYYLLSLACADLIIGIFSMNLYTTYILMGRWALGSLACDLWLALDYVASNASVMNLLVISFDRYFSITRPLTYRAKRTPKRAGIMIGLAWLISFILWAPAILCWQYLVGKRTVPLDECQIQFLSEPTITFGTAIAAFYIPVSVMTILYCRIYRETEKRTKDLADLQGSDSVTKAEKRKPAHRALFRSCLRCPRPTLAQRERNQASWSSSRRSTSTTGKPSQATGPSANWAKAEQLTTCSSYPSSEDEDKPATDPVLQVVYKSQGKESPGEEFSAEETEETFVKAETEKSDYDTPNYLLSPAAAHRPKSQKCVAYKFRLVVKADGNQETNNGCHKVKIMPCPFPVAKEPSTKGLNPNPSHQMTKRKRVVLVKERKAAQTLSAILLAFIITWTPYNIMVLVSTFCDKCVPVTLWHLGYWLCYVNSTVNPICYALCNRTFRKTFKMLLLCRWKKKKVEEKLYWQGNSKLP
Procedure: (§1) Biological Evaluation Human M1, Rat M1, Human M3 and Human M5 Calcium Mobilization FLIPR™ Assay
(§2) The compound activity in the present invention (EC50 or IC50) was measured using a 384 plate-based imaging assay that monitors drug induced intracellular Ca^2+ release in whole cells. Activation of hM1 (human Muscarinic receptor subtype 1, gene bank access NM_000738), rM1 (rat Muscarinic receptor subtype 1, gene bank access NM_080773), hM3 (human Muscarinic receptor subtype 3, gene bank access NM_000740NM_000740) and hM5 (human Muscarinic receptor subtype 5, gene bank access NM_0121258), receptors expressed in CHO cells (Chinese hamster ovary cells, ATCC) was quantified in a Molecular Devices FLIPR II™ instrument as an increase in fluorescent signal. Inhibition of hM3 and hM5 by compounds was determined by the decrease in fluorescent signal in response to 20 nM carbachol activation.
(§3) CHO cells were plated in 384-black polylysine coated plate (Costar) at 8000 cells/well/50 μl for 24 hours or 4000 cells/well for 48 hours in a humidified incubator (5% CO2 and 37° C.) in DMEM/F12 medium without selection agent. Prior to the experiment the cell culture medium was removed from the plates by inversion. A loading solution of 30 μl of Hank's balanced salt solution, 10 mM Hepes and 2.5 mM Probenicid at Ph 7.4 (Cat no. 311-520-VL, Wisent) with 2 μM calcium indicator dye (FLUO-3AM, Molecular Probes F14202) was added to each well. Plates were incubated at 37° C. for 60 minutes prior to start the experiment. The incubation was terminated by washing the cells four times in assay buffer, leaving a residual 25 μl buffer per well. Cell plates were then transferred to the FLIPR, ready for compound additions.
(§4) The day of experiment, carbachol and compounds were diluted in three-fold concentration range (10 points serial dilution) for addition by FLIPR instrument. For all calcium assays, a baseline reading was taken for 30 seconds followed by the addition of 12.5 μl (25 μl for hM1 and rM1) of compounds, resulting in a total well volume of 37.5 μl (50 μl for hM1 and rM1). Data were collected every 1.6 seconds for 300 seconds. For hM3 and hM5 an additional 12.5 μl of carbachol (20 nM final) was added at 300 seconds. After this addition of carbachol (producing a final volume of 50 μl), the FLIPR continued to collect data every 2 seconds for 240 seconds. The fluorescence emission was read using filter 1 (emission 520-545 nm) by the FLIPR on board CCD camera.
(§5) Calcium mobilization output data were calculated as the maximal relative fluorescence unit (RFU) minus the minal value for both compound and agonist reading frame (except for hM1 and rM1 using only the maximal RFU). Data were analyzed using sigmoidal fits of a non-linear curve-fitting program (XLfit version 5.0.6 from ID Business Solutions Limited, Guildford, UK). All EC50 and IC50 values are reported as arithmetic means±standard error of mean of ‘n’ independent experiments.

[2] = target: T2, hM3 (human Muscarinic receptor subtype 3) (Homo sapiens, UniProt P20309); experiment: Human M3 calcium mobilization FLIPR assay; assay type: cell-based; conditions: CHO cells expressing hM3, Ca2+ release
T2 construct: expressed in transfected cells; host or cells: CHO cells (Chinese hamster ovary cells, ATCC)
T2 sequence (P20309 whole entry): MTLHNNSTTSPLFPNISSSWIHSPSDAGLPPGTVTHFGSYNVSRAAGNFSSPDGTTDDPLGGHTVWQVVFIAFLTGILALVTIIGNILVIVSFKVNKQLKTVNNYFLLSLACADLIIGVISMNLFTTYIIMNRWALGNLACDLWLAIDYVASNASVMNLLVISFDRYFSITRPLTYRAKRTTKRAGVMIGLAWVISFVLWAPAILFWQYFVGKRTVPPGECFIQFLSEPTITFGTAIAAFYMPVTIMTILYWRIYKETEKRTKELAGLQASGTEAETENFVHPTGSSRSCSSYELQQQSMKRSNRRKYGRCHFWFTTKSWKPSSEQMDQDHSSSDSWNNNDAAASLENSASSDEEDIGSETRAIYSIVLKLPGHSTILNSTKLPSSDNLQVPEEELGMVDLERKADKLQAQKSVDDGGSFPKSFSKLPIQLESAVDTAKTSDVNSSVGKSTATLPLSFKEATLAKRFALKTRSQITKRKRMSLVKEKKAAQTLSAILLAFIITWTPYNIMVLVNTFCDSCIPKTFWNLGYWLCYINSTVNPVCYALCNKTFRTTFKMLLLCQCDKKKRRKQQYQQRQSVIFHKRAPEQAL
Procedure: as §1, §2, §3, §4, §5

`CC(C)OC(=O)N1CCC(N2CCC(N3C(=O)C[C@H]4CCCC[C@@H]43)CC2)CC1` showed an EC50 [1] greater than 40000 nM and an EC50 [2] greater than 40 µM.

Compound `COc1ccccc1C(=O)N1CCC(N2CCC(N3C(=O)N[C@@H]4CCCC[C@H]43)CC2)CC1` has an EC50 [1] greater than 40000 nM and an EC50 [2] greater than 40 µM.

With `O=C(C1CCCC1)N1CCC(N2CCC(N3C(=O)N[C@H]4CCCC[C@@H]43)CC2)CC1` the EC50 [1] was greater than 40000 nM and the EC50 [2] was greater than 40 µM.

`CC(C)OC(=O)N1CCC(N2CCC(N3C(=O)N[C@H]4CCCC[C@@H]43)CC2)CC1` showed an EC50 [1] of 36 nM and an EC50 [2] greater than 40 µM.

`CC(C)OC(=O)N1CCC(N2CCC(N3C(=O)N[C@@H]4CCCC[C@@H]43)CC2)CC1` was tested, and the EC50 [1] was 72 nM and the EC50 [2] was greater than 40 µM.

`CN1C(=O)N(C2CCN(C3CCN(C(=O)C4CC4)CC3)CC2)[C@H]2CCCC[C@@H]21` was tested, and the EC50 [1] was greater than 40000 nM and the EC50 [2] was greater than 40 µM.

For `O=C1CCCN1CCC(=O)N1CCC(N2CCC(N3C(=O)N[C@@H]4CCCC[C@H]43)CC2)CC1`, the EC50 [1] was 2400 nM and the EC50 [2] was 5.4 µM.

With `CCOC(=O)N1CC[C@H](N2CCC(N3C(=O)N[C@H]4CCCC[C@@H]43)CC2)C1` the EC50 [1] was 3900 nM and the EC50 [2] was greater than 40 µM.

`O=C(C1CC1)N1CCC(N2CCC(N3C(=O)N[C@@H]4CCCC[C@H]43)CC2)CC1` gave an EC50 [1] greater than 40000 nM and an EC50 [2] greater than 40 µM.

Work on `CCOC(=O)N1CCC(N2CCC(N3C(=O)N[C@H]4CCCC[C@@H]43)CC2)CC1` yielded an EC50 [1] of 220 nM and an EC50 [2] of 2.5 µM.

`O=C1CCCN1CCC(=O)N1CCC(N2CCC(N3C(=O)N[C@H]4CCCC[C@@H]43)CC2)CC1` showed an EC50 [1] of 1600 nM and an EC50 [2] greater than 40 µM.
